The record followed here is patent publication US20170209447A1, “Use of PNP Inhibitor to Treat Relapse of Malignancy after Hematopoietic Stem Cell Transplant” (Nitor Therapeutics, priority 2014, published 2017).

For this assay, the system named is B16 tumors. As to the kind of experiment: PNPi as anticancer agent in mouse melanoma model. In kind it is in vivo, C57BL/6 mice. Here is the method:
Evaluation of PNPi as Anticancer Agent in Mouse Melanoma Model.
Treatment with the NTR001 was initiated on day 6 after injection of tumor cells. Tumor volume and survival were recorded every 3-4 days.

In the case of `O=c1[nH]cnc2c([C@@H]3N[C@H](CO)[C@@H](O)[C@H]3O)c[nH]c12` [NTR001, 7-[(2S,3S,4R,5R)-3,4-dihydroxy-5-(hydroxymethyl)-2-pyrrolidinyl]-1,5-dihyro-4-H-pyrrolo-[3,2-d]pyrimidin-4-one], the survival (NTR001 as single agent (30 mg/kg PO week on/off; 5 mg/kg drinking water 28 days), FIG. 6) is on record as 0-20%. Further, the tumor volume entry (NTR001 treatment initiated day 6 after tumor cells, 30 mg/kg PO week on/off or 5 mg/kg drinking water, FIG. 5) is “significant decrease”.
